According to patent US20110275672A1, “METHODS FOR TREATING CANCERS USING POLYMORPHIC FORMS OF 3-(4-AMINO-1-OXO-1,3 DIHYDRO-ISOINDOL-2-YL)-PIPERIDINE-2,6-DIONE” (Celgene Corporation, priority 2003, published 2011):
Values joined by “and” are separate entries in the source; they are usually repeats but may differ in a detail not shown here. Equal entries are not always repeated. Where two headings read alike, the source gives them in different places.

What was measured:
[1] = Phase 1 studies in refractory or relapsed multiple myeloma patients: dose limiting toxicity; format: in vivo
Description: (§1) Patients started 3-(4-amino-1-oxo-1,3-dihydro-isoindol-2-yl) -piperidine -2,6-dione treatment at 5 mg/day with subsequent escalation to 10, 25, and 50 mg/day. […] Patients were evaluated for adverse events at each visit and the severity of these events was graded according to the National Cancer Institute (NCI) Common Toxicity Criteria. Patients were discontinued if they experienced DLT (Grade 3 or greater non-hematological, or Grade 4 hematological toxicity).
The second cohort of 3 patients subsequently commenced therapy at 10 mg/day.

[2] = Cardiovascular and respiratory function in anesthetized dogs; format: in vivo, Beagle dogs
From the text: Two groups of Beagle dogs (2/sex/group) are used.

TNF-α production [3] = conditions: cited from earlier work; for IC50: human whole blood, LPS, read-out: IC50 for inhibiting production of TNF-α following LPS-stimulation of human whole blood
T-cells = test: Stimulation of T-cell proliferation following primary induction by T-cell receptor (TCR) activation; format: cell-based
IL-2 = test: Augmentation of IL-2 production following TCR activation of PBMC; format: cell-based
[4] = LPS-stimulated production of IL-113 by PBMC; format: cell-based
IL-6 = test: LPS-stimulated production of IL-6 by PBMC; format: cell-based
metastatic melanoma = test: Treatment of metastatic melanoma patients; format: in vivo, human
Description: The dose was then increased every seven days to 10 mg/day, 25 mg/day, and 50 mg/day, respectively, for a total of four weeks on therapy.

[5] = Phase 1 studies in refractory or relapsed multiple myeloma patients: pharmacokinetics; format: in vivo
Description: as §1
Blood and urine samples were collected for analysis of pharmacokinetic parameters on Days 1 and 28. Blood samples were collected according to the following sampling schedule: pre-dose, 0.25, 0.5, 0.75, 1, 1.5, 2, 2.5, 3, 4, 6, 8, 10, 12, 18, and 24 hours post-dose. In addition, a blood sample was collected at each weekly clinic visit for 3-(4-amino-1-oxo-1,3-dihydro-isoindol-2-yl)-piperidine-2,6-dione determination. Total urine was collected and pooled according to the following time intervals post-dose: 0 to 4, 4 to 8, 8 to 12, and 12 to 24 hours. […] Bone marrow aspirations and/or tissue biopsy are also performed at Months 3, 6 and 12 if a patient's paraprotein serum concentration or 24-hour urine protein excretion declined to the next lower level, based on best response criteria.

IFN-γ = test: Augmentation of IFN-γ production following TCR activation of T-cells; format: cell-based
IL-10 = test: LPS-stimulated production of IL-10 by PBMC; format: cell-based
[6] = Phase 1 study in patients with solid tumors: dose limiting toxicity; format: in vivo; conditions: initial group of 20 patients with solid tumors, 5 escalated to 50 mg/day over 4 weeks
Description: Patients who, experienced clinical benefit were permitted to continue on treatment as Named Patients.
The study initially enrolled 20 patients and was subsequently amended to enroll 16 additional patients (adrenal carcinoma, NSCLC, malignant mesothelioma, breast cancer, metastatic melanoma (8), renal cell cancer (4)) at a higher dose. The 16 additional patients were given weekly escalating doses of 25 mg/day, 50 mg/day, 75 mg/day, 100 mg/day, 125 mg/day, and 150 mg/day over a 6-week period with continuing treatment for an additional six weeks.
The study design dictates that at least 3 patients must be enrolled at a dose level and have completed 28 days of treatment prior to enrollment of patients at the next higher dose level. […] Patients will be escalated to 10, 20, 25, and 30 mg/day provided there is no toxicity.
If, at any given dose level in either study, one out of three patients experiences toxicity, three additional patients must be treated at that particular dose. If, however, two out of six patients experience DLT, the MTD is judged to have been exceeded. No further dose escalations are to occur and additional patients are to be enrolled at the previous dose level. The dose of 3-(4-amino-l-oxo-1,3-dihydro-isoindol-2-yl)-piperidine-2,6-dione administered is escalated until the MTD is achieved or the maximum daily dose […] is reached.

Hs Sultan cells = test: Inhibition of MM cell proliferation, [3H]-thymidine uptake, Hs Sultan; format: cell-based
Description: (§2) The uptake of [^3H]-thymidine by different MM cell lines (MM.1S, Hs Sultan, U266 and RPMI-8226) was measured as an indicator of the cell proliferation.
(§3) Uptake [^3H]-thymidine by different MM cell lines (MM.1S, Hs Sultan, U266 and RPMI-8226) was measured as an indicator of cell proliferation. Cells were incubated in the presence of compounds for 48 hours; [^3H]-thymidine was included for the last 8 hours of the incubation period.

TNF-α production [7] = test: Inhibition of TNF-α production following LPS-stimulation of human PBMC; format: cell-based
TNF-α production [8] = conditions: human PBMC, cited from earlier work; for IC50: LPS, read-out: IC50 for inhibiting production of TNF-α following LPS-stimulation of PBMC
MM.1S cells = test: Inhibition of MM cell proliferation, [3H]-thymidine uptake, MM.1S; format: cell-based; conditions: for IC50: Homo sapiens, MM1.S
Description: as §2, §3

[9] = Pharmacokinetics of Actimid in relapsed/refractory multiple myeloma patients; format: in vivo, human
Description: 6.5.1 Treatment of Relapsed Multiple Myeloma p 4-(Amino)-2-(2,6-dioxo(3-piperidyl))-isoindoline-1,3-dione (Actimid™) was administered to patients with relapsed/refractory multiple myeloma. The study was conducted in compliance with Good Clinical Practices. Patients were at least 18 years old, had been diagnosed with multiple myeloma (with paraprotein in serum and/or urine), and were considered refractory to treatment after at least two cycles of treatment, or have relapsed after two cycles of treatment.
Patients who have progressive disease, according to the Southwest Oncology Group (SWOG) criteria, on their prior regimen are considered treatment refractory. Relapse following remission is defined as >25% increase in M component from baseline levels; reappearance of the M paraprotein that had previously disappeared; or a definite increase in the size and number of lytic bone lesions recognized on radiographs. Patients may have had prior therapy with thalidomide, provided they were able to tolerate the treatment. A Zubrod performance status of 0 to 2 is required for all patients.
4-(Amino)-2-(2,6-dioxo(3-piperidyl))-isoindoline-1,3-dione is administered to patients at doses of 1, 2, 5, or 10 mg/day for up to four weeks; at each dose level, three patients are initially enrolled. Dosing occurs at approximately the same time each morning; all doses are administered in the fasted state (no eating for at least two hours prior to dosing and two hours after dosing). 4-(Amino)-2-(2,6-dioxo(3-piperidyl))-isoindoline-1,3-dione doses are administered in an ascending fashion such that patients in the first cohort receive the lowest dose of 4-(amino)-2-(2,6-dioxo(3-piperidyl))-isoindoline-1,3-dione (1 mg/day) and escalation to the next higher dose level occurs only following the establishment of safety and tolerability at the current dose. If one out of three patients at any dose level experience dose limiting toxicity (DLT), three additional patients are enrolled at that dose. If none of the three additional patients experience DLT, escalation to the next dose level occurs; dose escalations continue in a similar fashion until the MTD is established or the maximum daily dose (10 mg/day) is attained. However, if one of the three additional patients enrolled experiences DLT, the MTD has been reached. If two or more of the three additional patients enrolled experience DLT, the MTD is judged to have been exceeded and three additional patients are enrolled at the preceding dose level to confirm the MTD. Once the MTD has been identified, four additional patients are enrolled at that dose level so that a total of 10 patients is treated at the MTD.
Blood sampling for analysis of pharmacokinetic parameters is performed on Days 1 and 28 according to the following sampling schedule: pre-dose, 0.25, 0.5, 0.75, 1, 1.5, 2, 2.5, 3, 4, 6, 8, 10, 12, 18, and 24 hours post-dose. An additional blood sample is collected at each weekly visit for the determination of 4-(amino)-2-(2,6-dioxo(3-piperidyl))-isoindoline-1,3-dione levels. Total urine collections are also made with urine pooled according to the following time intervals post-dose: 0 to 4, 4 to 8, 8 to 12, and 12 to 24 hours. Safety assessments are made by monitoring adverse events, vital signs, ECGs, clinical laboratory evaluations (blood chemistry, hematology, lymphocyte phenotyping, and urinalysis), and physical examination at specific times during the study.

## Nc1cccc2c1CN(C1CCC(=O)NC1=O)C2=O (centres unmarked) [3-(4-amino-1-oxo-1,3-dihydro-isoindol-2-yl)-piperidine-2,6-dione]
[1]; 5 mg/day for 28 days, first cohort of 3 patients
  dose limiting toxicity (DLT): without any dose limiting toxicity
[1]; 10 mg/day, second cohort of 3 patients
  tolerability: tolerated treatment well
[2]; anesthetized Beagle dogs, all doses (2, 10, and 20 mg/kg), infusion through the jugular vein
  cardiovascular and respiratory changes compared to the vehicle control group: minimal
[2]; anesthetized dogs, higher doses (10, 20 mg/kg)
  increase in arterial blood pressure at higher doses: not seen at higher doses
[2]; anesthetized dogs, low dose
  duration of the increase in arterial blood pressure: approximately 15 minutes
[2]; anesthetized dogs, low dose (2 mg/kg), infusion
  arterial blood pressure after small increase (from 94 mmHg): 101 mmHg
[2]; anesthetized dogs, common to control and treated groups
  deviations in femoral blood flow, respiratory parameters, and Qtc interval: not considered treatment-related
TNF-α production [3]
  IC50 for inhibiting production of TNF-α following LPS-stimulation of human whole blood: 103.6 ng/mL
  IC50: ~480 nM
T-cells
  times more potent than thalidomide in stimulating the proliferation of T-cells: 50-100 times
IL-2
  times more potent than thalidomide in augmenting the production of IL-2: 50-100 times
[4]
  LPS-stimulated production of IL-113 by PBMC: dose-dependent inhibition
IL-6
  LPS-stimulated production of IL-6 by PBMC: dose-dependent inhibition
Metastatic melanoma; first four weeks of treatment, 5 escalated weekly to 10, 25, 50 mg/day
  patients showing disease stabilization or a partial response: Five of the 13
Metastatic melanoma; metastatic melanoma patients
  duration of response: approximately six
  tumor response in cutaneous and subcutaneous lesions: five
  tumor response in liver: one
  tumor response in lymph nodes: two
[5]; human, in vivo
  accumulation with multiple dosing: no evidence of accumulation
  half-live in patients, mean: 8 h
  half-live in patients, range: up to 17 hours
  plasma concentration profile: double peaks were observed
[5]; multiple myeloma patients
  clearance compared to healthy volunteers: lower
  exposure (Cmax and AUC) compared to healthy male volunteers: slightly higher
IFN-γ
  times more potent than thalidomide in augmenting the production of IFN-γ: 50-100 times
IL-10
  production of the anti-inflammatory cytokine IL-10: increased production
[6]
  DLTs: No DLTs were reported
Hs Sultan cells; read-out: concentration resulting in 50% inhibition of cell proliferation, 48 hours, [3H]-thymidine last 8 hours
  IC50: 1000 nM
TNF-α production [7]
  LPS-stimulated production of TNF-α by PBMC: dose-dependent inhibition
TNF-α production [8]
  IC50: ~100 nM
  IC50 for inhibiting production of TNF-α following LPS-stimulation of PBMC: 25.9 ng/mL
MM.1S cells; read-out: concentration resulting in 50% inhibition of cell proliferation, MM.1S cells, 48 hours, [3H]-thymidine last 8 hours
  IC50: 400 nM

## O=C1CCC(N2C(=O)c3ccccc3C2=O)C(=O)N1 (centres unmarked) [thalidomide, reference compound]
Hs Sultan cells; concentrations up to 100 μm, 48 hours
  inhibition of cell proliferation: 20%
TNF-α production [8]
  IC50: ~194000 nM
  IC50 for inhibiting production of TNF-α following LPS-stimulation of PBMC: 50200 ng/mL
MM.1S cells; MM.1S cells, concentrations up to 100 μm, 48 hours
  inhibition of cell proliferation: 15%

## Nc1cccc2c1C(=O)N(C1CCC(=O)NC1=O)C2=O (centres unmarked) [Actimid, 4-(Amino)-2-(2,6-dioxo(3-piperidyl))-isoindoline-1,3-dione]
TNF-α production [3]
  IC50 for inhibiting production of TNF-α following LPS-stimulation of human whole blood: 6.83 ng/mL
  IC50: ~25 nM
Hs Sultan cells; read-out: concentration achieving 50% inhibition of proliferation
  IC50: 0.00273 µg/mL to 0.0273 µg/mL and 10 nM to 100 nM
[9]; Day 1
  fold increase in AUC(01) with a 5-fold increase in dose: 3.6 fold
  fold increase in Cmax with a five-fold higher dose: 3.2 fold
[9]; Week 4
  fold increase in AUC(01) with a 5-fold increase in dose: 2.3 fold
  fold increase in Cmax with a five-fold higher dose: 2.2 fold
[9]; all dose levels, relapsed multiple myeloma patients
  absorption: steadily absorbed
[9]; human, in vivo
  decline of plasma concentrations after reaching Cmax: monophasic manner
  median Tmax: 3 to 4 h
[9]; human, in vivo, 1 mg
  CL/F: 114.75 mL/min
[9]; human, in vivo, 2 mg
  CL/F: 121.43 mL/min
[9]; human, in vivo, 5 mg
  CL/F: 182.31 mL/min
  t½: 6.5 h
TNF-α production [8]
  IC50: ~24 nM
  IC50 for inhibiting production of TNF-α following LPS-stimulation of PBMC: 6.55 ng/mL
MM.1S cells; read-out: concentration achieving 50% inhibition of proliferation, MM.IS cells
  IC50: 0.00273 µg/mL to 0.0273 µg/mL and 10 nM to 100 nM
